Non-standard residues stand in square brackets, D forms with d. Residues, ends and D or L forms follow the SMILES beside them. *: point of attachment. Acetyl(1-adamantyl) = O=C(CC12CC3CC(CC(C3)C1)C2)*
Key:
[1] = in vitro; conditions: human, serum
[2] = biological target: T1, DR4w4 (Homo sapiens, UniProt P01903+P01911, A100K/A169T/F76Y/I96L/K127E/L162R/M171V/N62H/P40V/Q125Y/R42H/S133A/S149N/S66Y/V115G/V209L/W38E); assay: DR-peptide binding assay, DR4w4; conditions: for MHC Binding Assay DR4w4: Table 3, binding affinity relative to HA 307-319 = 1
T1 construct: EBV-transformed homozygous cell lines were used as a source of DR molecules; endogenous in cells; host or cells: Preiss or Beh (EBV-transformed human B cell lines, DR4 Dw4 homozygous); lysate purified on a monoclonal antibody LB3.1 column

[3] = system: DR4w14; assay: DR-peptide binding assay, DR4w14; design: species or system human; conditions: for MHC Binding Assay DR4w14: Table 3, […]
[4] = biological target: T2, HLA-DR1 (Homo sapiens, UniProt P01903+P01911, A100R/D57E/F55L/F60I/F76Y/I96L/L162R/M171V/P40L/Q125E/R42F/V115G/Y59C); assay: DR-peptide binding assay, DR1; conditions: for MHC Binding Assay DR1: Table 3, binding affinity relative to HA 307-319 = 1
T2 construct: EBV-transformed homozygous cell lines were used as a source of DR molecules; endogenous in cells; host or cells: LG-2 (EBV-transformed human B cell line, DR1 homozygous); lysate purified on a monoclonal antibody LB3.1 column

[5] = Table 6, binding affinity relative to HA 307-319 = 1

| half-life at 50 µg/mL [1] | DR4w4 [2, 5] | DR4w14 ([3]; Table 6, […]) | DR1 [4, 5] | Structure (SMILES) | half-life [1] | MHC Binding Assay DR4w4 [2] | MHC Binding Assay DR4w14 [3] | MHC Binding Assay DR1 [4] |
| --- | --- | --- | --- | --- | --- | --- | --- | --- |
|  |  |  |  | CC(=O)N[C@H](Cc1ccc(O)cc1)C(=O)N[C@@H](C)C(=O)N[C@@H](C)C(=O)N[C@@H](Cc1ccccc1)C(=O)N[C@@H](C)C(=O)N[C@@H](C)C(=O)N[C@@H](C)C(=O)N[C@@H](CCCCN)C(=O)N[C@H](C(=O)N[C@@H](C)C(=O)N[C@@H](C)C(=O)N[C@@H](C)C(=O)N[C@@H](C)C(=O)N[C@H](C)C(=O)O)[C@@H](C)O (Ac-[dY]AAFAAAKTAAAA[dA]-OH) | 6.77 h | ++ (affinity greater than 1.0) | ++ (affinity greater than 1.0) | ± (0.1 to 0.50) |
|  |  |  |  | C[C@H](NC(=O)[C@H](N)Cc1ccc(O)cc1)C(=O)N[C@@H](C)C(=O)N[C@@H](Cc1ccccc1)C(=O)N[C@@H](C)C(=O)N[C@@H](C)C(=O)N[C@@H](C)C(=O)N[C@@H](CCCCN)C(=O)N[C@H](C(=O)N[C@@H](C)C(=O)N[C@@H](C)C(=O)N[C@@H](C)C(=O)N[C@@H](C)C(=O)N[C@H](C)C(=O)O)[C@@H](C)O (H-[dY]AAFAAAKTAAAA[dA]-OH) | 8.85 h | ++ (affinity greater than 1.0) | ++ (affinity greater than 1.0) | ++ (affinity greater than 1.0) |
|  |  |  |  | C[C@H](NC(=O)[C@H](N)Cc1ccc(O)cc1)C(=O)N[C@@H](C)C(=O)N[C@@H](Cc1ccccc1)C(=O)N[C@@H](C)C(=O)N[C@@H](C)C(=O)N[C@@H](C)C(=O)N[C@@H](CCCCN)C(=O)N[C@H](C(=O)N[C@@H](C)C(=O)N[C@@H](C)C(=O)N[C@@H](C)C(=O)N[C@@H](Cc1ccccc1)C(=O)N[C@H](C)C(N)=O)[C@@H](C)O (H-[dY]AAFAAAKTAAAF[dA]-NH2) | 5 h | ++ (affinity greater than 1.0) | ++ (affinity greater than 1.0) | ++ (affinity greater than 1.0) |
| 7.2 h | ++ (affinity greater than 1.0) | ++ (affinity greater than 1.0) | + (0.51 to 1.0) | C[C@H](NC(=O)CC12CC3CC(CC(C3)C1)C2)C(=O)N[C@@H](C)C(=O)N[C@@H](C)C(=O)N[C@@H](CCCCN)C(=O)N[C@H](C(=O)N[C@@H](C)C(=O)N[C@@H](C)C(=O)N[C@@H](C)C(=O)N[C@@H](Cc1ccccc1)C(=O)N[C@H](C)C(=O)O)[C@@H](C)O ({Acetyl(1-adamantyl)}-AAAKTAAAF[dA]-OH; C-terminus assumed) |  |  |  |  |
